These results are taken from patent publication US10266544B2, “Aryl substituted aminomethyl spectinomycin analogs as antibacterial agents” (ST. JUDE CHILDREN'S RESEARCH HOSPITAL, INC., priority 2013, dated 2019).

Values after ≈ are worked out from the molar mass of the structure shown. Where a name gives a salt, the structure may show the parent alone. Read-outs that look alike come from different tables or passages of the source.

What all share (format): cell-based
For test [1], the system named is Klebsiella pneumoniae (ATCC 33495). Put plainly: MIC determination, microbroth dilution. The settings on record: ATCC33495. In general terms: In broth dilution the organism is exposed to a series of concentrations in liquid medium.
Test [2] deals with Bacillus subtilis (ATCC 23857). Put plainly: MIC determination, microbroth dilution. The following applies: ATCC23857; Bacillus subtilis (ATCC 23857); read-out: MIC B.s.
In test [3] the test system is Proteus mirabilis (ATCC 25933). Kind of test: MIC determination, microbroth dilution. The settings on record: ATCC25933.
In a further test the test system is E. coli K12 ΔtolC. Kind of test: microbe, parasite or virus in culture. The following applies: Escherichia coli, read-out: MIC E.c. Δtolc.
In test [4] the test system is Stenotrophomonas maltophilia (ATCC 13637). Put plainly: MIC determination, microbroth dilution. The following applies: ATCC13637; Stenotrophomonas maltophilia (ATCC 13637); read-out: MIC S.m.
Test [5] relates to Streptococcus pneumoniae (R6). Put plainly: MIC determination, microbroth dilution.
The subject of test [6] is Proteus vulgaris (ATCC 33420). Kind of test: MIC determination, microbroth dilution. The settings on record: ATCC33420.
For test [7], the system named is MRSA, Staphylococcus aureus (NRS70). Kind of test: MIC determination, microbroth dilution. The settings on record: Staphylococcus aureus (NRS70); read-out: MIC MRSA.
Test [8] concerns Pseudomonas aeruginosa (PA01). Kind of test: MIC determination, microbroth dilution.
For test [9], the system named is Bacillus anthracis, Sterne 34F2. Kind of test: microbe, parasite or virus in culture. The following applies: STERNE34F2, read-out: MIC B.a.
For test [10], the system named is Streptococcus pyogenes (ATCC 700294). Put plainly: MIC determination, microbroth dilution. The following applies: ATCC700294; Streptococcus pyogenes (ATCC 700294); read-out: MIC S. py.
Test [11] has as its system Escherichia coli (ATCC 700926). Put plainly: MIC determination, microbroth dilution. As to the method: MICs were determined using the microbroth dilution method according to Clinical Laboratory Standards Institute (CLSI; National, C. F. C. L. S., Methods for Dilution Antimicrobial Susceptibility Tests for Bacteria Grow aerobically-Seventh Edition: Approved Standard M7-A7, CLSI, Wayne, Pa., USA, 2008) and were read by visual inspection. Two fold serial dilutions of antibiotic in 100 μL of the appropriate broth media were first prepared in 96-well round bottom microtiter plates (Nalge Nunc International, Rochester, N.Y., USA). An equivalent volume (100 μL) of bacterial broth inocula containing approximately 10^5 bacterial cfu/mL was added to each well to give final concentrations of drug starting at 200 μg/mL and the plates were incubated aerobically at 37° C. M. tuberculosis microtiter plates were incubated for 7 days and all other strains were incubated overnight. After incubations, in all cases the MIC was recorded as the lowest concentration of drug that prevented bacterial growth.

The test system of test [12] is Burkholderia cepacia (ATCC 25416). Put plainly: MIC determination, microbroth dilution. The settings on record: Burkholderia cepacia, ATCC25416, read-out: MIC B.c., Burkholderia cepacia (ATCC 25416).
In test [13] the test system is acinetobacter baumannii (ATCC 19606). Kind of test: MIC determination, microbroth dilution. The settings on record: ATCC19606.
Test [14] deals with Staphylococcus aureus (ATCC 29213). Kind of test: MIC determination, microbroth dilution. The following applies: ATCC29213; Staphylococcus aureus (ATCC 29213); read-out: MIC S.a.
Test [15] concerns Enterococcus faecalis (ATCC 33186). Put plainly: MIC determination, microbroth dilution. The settings on record: ATCC33186; Enterococcus faecalis (ATCC 33186); read-out: MIC E.f.
The subject of test [16] is M. tuberculosis clinical isolates. Put plainly: microbe, parasite or virus in culture. The following applies: Mycobacterium tuberculosis, H37RV, read-out: MIC H37Rv.
In test [17] the test system is Streptococcus pneumoniae clinical isolates representing several serotypes. Kind of test: MIC determination, Streptococcus pneumoniae panel of clinical isolates (Table 7). The following applies: Streptococcus pneumoniae.
The mark [18] stands for this setting: Streptococcus pneumoniae (R6), read-out: MIC S. pn.
Where [19] appears, read: ATCC700926, Escherichia coli (ATCC 700926), read-out: MIC E.c.

With `CN[C@@H]1[C@H](O)[C@H](NC)[C@H]2O[C@]3(O)[C@H](O[C@@H]2[C@H]1O)O[C@H](C)C[C@@]3(O)CNCc1cncnc1` [compound 66, 3′-(R)-3′-[(pyrimidin-5-ylmethyl)aminomethyl]dihydrospectinomycin tetrahydrobromide], the MIC was 100 to 200 µg/mL in test [1]; 200 µg/mL in test [2]; greater than 200 µg/mL in [3]; 25 to 50 µg/mL in the test on E. coli K12 ΔtolC; 100 µg/mL in [4]; 0.8 µg/mL in test [5] (setting [18]). In addition, the MIC in test [6] is greater than 200 µg/mL; in test [7] it was greater than 200 µg/mL; in test [8], greater than 200 µg/mL; in [9], 100 µg/mL; in test [10], 100 µg/mL; in test [11] (Escherichia coli, ATCC700926, read-out: MIC E.c.), 50 µg/mL. The MIC in [12], in [13] and in test [14] was greater than 200 µg/mL each time.

On to `CN[C@@H]1[C@H](O)[C@H](NC)C2O[C@]3(O)C(OC2[C@H]1O)O[C@H](C)C[C@@]3(O)CNCc1cccc(C(=O)OC)c1` (stereo partly drawn) [compound 41], for which the MIC in test [2] is 50 µg/mL (≈ 97.7 µM); in test [5] (setting [18]), 50 µg/mL (≈ 97.7 µM); in [7], 200 µg/mL (≈ 391 µM); in test [15] it was 200 µg/mL (≈ 391 µM); in test [9], greater than 200 µg/mL; in test [10] it was 50 µg/mL (≈ 97.7 µM). The MIC stood at 50 µg/mL (≈ 97.7 µM) in test [16] and 200 µg/mL (≈ 391 µM) in test [14].

Regarding `CN[C@@H]1[C@H](O)[C@H](NC)C2O[C@]3(O)C(OC2[C@H]1O)O[C@H](C)C[C@@]3(O)CNCc1cccc(C(F)(F)F)c1` (stereo partly drawn) [compound 50], the MIC in test [2] was 12.5 µg/mL (≈ 24 µM); in [5] (setting [18]), 3.13 µg/mL (≈ 6 µM); in test [7] it was 50 µg/mL (≈ 95.9 µM); in [15] it was 25 µg/mL (≈ 47.9 µM); in test [9], greater than 200 µg/mL; in [10], 1.56 µg/mL (≈ 2.99 µM). Also, the MIC in test [14] came to 50 µg/mL (≈ 95.9 µM).

Consider `CN[C@@H]1[C@H](O)[C@H](NC)C2O[C@]3(O)C(OC2[C@H]1O)O[C@H](C)C[C@@]3(O)CNCc1ccc2ccccc2c1` (stereo partly drawn) [compound 39], for which the MIC in test [2] was 25 µg/mL (≈ 49.6 µM); in test [5] (setting [18]), 12.5 µg/mL (≈ 24.8 µM); in test [7], 100 µg/mL (≈ 199 µM); in test [15], 50 µg/mL (≈ 99.3 µM); in [9], greater than 200 µg/mL; in [10] it was 12.5 µg/mL (≈ 24.8 µM). Further, the MIC in test [16] turned out to be 50 µg/mL (≈ 99.3 µM); in test [14], 100 µg/mL (≈ 199 µM).

In the case of `CN[C@@H]1[C@H](O)[C@H](NC)C2O[C@]3(O)C(OC2[C@H]1O)O[C@H](C)C[C@@]3(O)CNCc1ccc(OC)c2c1CCCC2` (stereo partly drawn) [compound 45], the MIC in [2] was 50 µg/mL (≈ 93 µM); in [5] (setting [18]) it was 25 µg/mL (≈ 46.5 µM); in [7], 200 µg/mL (≈ 372 µM); in test [15] it was 50 µg/mL (≈ 93 µM); in [9] it was greater than 200 µg/mL; in test [10] it was 25 µg/mL (≈ 46.5 µM). In addition, the figures for the MIC in test [16] and in test [14] were 200 µg/mL (≈ 372 µM) and 100 µg/mL (≈ 186 µM), respectively.

`CN[C@@H]1[C@H](O)[C@H](NC)[C@H]2O[C@]3(O)[C@H](O[C@@H]2[C@H]1O)O[C@H](C)C[C@@]3(O)CNCc1ccc(S(C)(=O)=O)cc1` [compound 69, 3′-(R)-3′-[(4-(methylsulfonyl)benzylaminomethyl)]dihydrospectino-mycin trihydrobromide]: the MIC in test [1] was greater than 200 µg/mL; in test [2] it was greater than 200 µg/mL; in [3] it was greater than 200 µg/mL; in the test with E. coli K12 ΔtolC it was 12.5 to 25 µg/mL; in test [4], greater than 200 µg/mL; in test [5] (setting [18]), 100 µg/mL. The MIC in [6] was greater than 200 µg/mL; in [7], greater than 200 µg/mL; in test [8], greater than 200 µg/mL; in [9] it was greater than 200 µg/mL; in [10], 100 µg/mL; in test [11] (setting [19]) it was 50 to 100 µg/mL. The MIC in [12], in [13] and in test [14] was greater than 200 µg/mL throughout.

As to `CN[C@@H]1[C@H](O)[C@H](NC)[C@H]2O[C@]3(O)[C@H](O[C@@H]2[C@H]1O)O[C@H](C)CC3(O)CN` (stereo partly drawn) [mSPC, 3′-aminomethyl-3′-hydroxy spectinomycin, reference compound], the MIC was 50 µg/mL (≈ 138 µM) in [5] (Streptococcus pneumoniae, S. pneumoniae R6, Drug Susceptible, read-out: MIC R6); 200 µg/mL (≈ 550 µM) in test [17] (BAA1407, S. pneumoniae BAA-1407, Macrolide Resistant, read-out: MIC BAA-1407); 50 µg/mL (≈ 138 µM) in [17] (S. pneumoniae A66.1x, Drug Susceptible, read-out: MIC A66.1x); 50 µg/mL (≈ 138 µM) in test [17] (S. pneumoniae BHN97x, Drug Susceptible, read-out: MIC BHN97x); 100 µg/mL (≈ 275 µM) in [17] (S. pneumoniae D39X, Drug Susceptible, read-out: MIC D39X); 100 µg/mL (≈ 275 µM) in [17] (S. pneumoniae Daw7, PenG Resistant, read-out: MIC Daw7). The MIC in [17] (S. pneumoniae Daw8, PenG Resistant, read-out: MIC Daw8) came out at 100 µg/mL (≈ 275 µM); in [17] (S. pneumoniae Daw9, PenG Resistant, read-out: MIC Daw9), 50 µg/mL (≈ 138 µM); in test [17] (S. pneumoniae Daw62, PenG Resistant, read-out: MIC Daw62), 100 µg/mL (≈ 275 µM); in [17] (S. pneumoniae Daw64, PenG Resistant, read-out: MIC Daw64), 100 µg/mL (≈ 275 µM); in [17] (S. pneumoniae OVA6, Macrolide Resistant, read-out: MIC OVA6), 50 µg/mL (≈ 138 µM); in test [17] (S. pneumoniae T4X, Drug Susceptible, read-out: MIC T4X) it was 50 µg/mL (≈ 138 µM).

On to `CN[C@@H]1[C@H](O)[C@H](NC)C2O[C@]3(O)C(OC2[C@H]1O)O[C@H](C)C[C@@]3(O)CNCCC(C)c1ccccc1` (stereo partly drawn) [compound 47], for which the MIC is 12.5 µg/mL (≈ 25.2 µM) in test [2]; 25 µg/mL (≈ 50.4 µM) in [5] (setting [18]); 100 µg/mL (≈ 202 µM) in test [7]; 25 µg/mL (≈ 50.4 µM) in [15]; greater than 200 µg/mL in test [9]; 25 µg/mL (≈ 50.4 µM) in test [10]. The MIC in [16] is 6.3 µg/mL (≈ 12.7 µM); in test [14] it was 25 µg/mL (≈ 50.4 µM).

As for `CN[C@@H]1[C@H](O)[C@H](NC)[C@H]2O[C@]3(O)[C@H](O[C@@H]2[C@H]1O)O[C@H](C)C[C@@]3(O)CNCc1ccc(SC)cc1` [compound 68, 3′-(R)-3′-[(4-(methylthio)benzylaminomethyl)]dihydrospectinomycin trihydrobromide], the MIC in [1] was 100 to 200 µg/mL; in test [2] it was 25 µg/mL; in test [3], greater than 200 µg/mL; in the test on E. coli K12 ΔtolC it was 12.5 µg/mL; in test [4], 25 µg/mL; in [5] (setting [18]) it was 1.6 µg/mL. In addition, the MIC in [6] is greater than 200 µg/mL; in test [7], 50 µg/mL; in [8] it was 200 µg/mL; in [9] it was 25 µg/mL; in test [10] it was 3.1 µg/mL; in test [11] (setting [19]) it was 50 µg/mL. The MIC in [12] was greater than 200 µg/mL; in test [13] it was greater than 200 µg/mL; in test [14] it was 25 µg/mL.

For the compound `CN[C@@H]1[C@H](O)[C@H](NC)[C@H]2O[C@]3(O)[C@H](O[C@@H]2[C@H]1O)O[C@H](C)C[C@@]3(O)CNCc1cnccn1` [compound 67, 3′-(R)-3′-[(pyrazin-2-ylmethyl)aminomethyl]dihydrospectinomycin tetrahydrobromide], the MIC in test [1] is 100 µg/mL; in [2] it was 100 µg/mL; in test [3], greater than 200 µg/mL; in the test on E. coli K12 ΔtolC, 25 to 50 µg/mL; in test [4], 100 µg/mL; in test [5] (setting [18]), 6.3 µg/mL. In addition, the MIC is greater than 200 µg/mL in test [6]; greater than 200 µg/mL in test [7]; greater than 200 µg/mL in test [8]; 200 µg/mL in test [9]; 100 µg/mL in test [10]; 50 to 100 µg/mL in [11] (setting [19]). The MIC in test [12], in test [13] and in [14] was greater than 200 µg/mL throughout.
